Source: patent publication US20040192641A1, “Special preparation of anticancer drugs made by novel nanotechnology” (priority 2003, published 2004)
Marks after values point to notes of the source that are not given here.

Experiments:
L-120 leukemia = assay: Survival of mice bearing leukemia (free HHT vs PK-HHT-NP); format: in vivo
Description: Methods: L-120 leukemia mice, weight 20-22 g were used in the experiment. […] The dose of PK-HHT-NP is equivalent of free HHT. (All the following comparing experiments are used same methods).

breast carcinoma MCF-7 = assay: Inhibition of tumor cell proliferation, MCF-7; format: cell-based; conditions: Homo sapiens, MCF7; 1 μg/ml, 72 hours
Method: (§1) Human tumor cell lines: Hela leukemia HL-60, malignant melanocarcinoma B16, oral epidermoid carcinoma (KB), lung carcinoma (A549), breast carcinoma MCF-7, adenocarcinoma of stomach.
(§2) Animal tumor cell lines: Walker carcinoma, LLC-WRC-256, malignant melanoma (RMMI 1846), 3T3, and S-180 sarcoma (CCRF-180). All lines were routinely cultured in the RPMI1640 medium supplemented 20% fetal calf serum. The experiment was carried out in 96 microplate, each well had 5×10^5 cells and given desired concentration of 1 μg/ml (1×10^−6 g/ml) drug. Then the plate was incubated at 37° C. in an atmosphere of humidified air enriched with 5 percent carbon dioxide for 72 hours.
(§3) Inhibition percent rate of tumor cell proliferation was obtained according to the bellow formula. [formula]

gastric cancer cells = assay: Differentiation of gastric cancer cells; format: cell-based
Method: The gastric cancer cells and normal cells were cultured in PRMI 1640 medium supplement with 10% FCS serum. Other method is similar to example 1.

HL-60 cells = assay: Differentiation of human leukemic cells (HL-60), Example 57; format: cell-based
Method: Cell Lines. HL-60 cells were established from a patient with acute myeloid leukemia. The cells were cultured in culture flasks with RPMI plus 10% FCS.
Studies of Induction of Differentiation. Differentiation of HL-60 cells was assessed by their abilities to produced superoxide as measured by reduction of NBT, by NSE staining and by morphology as detected on cytospin preparations stained with Diff-Quick stain Set, and by analysis of membrane-bound differentiation markers with two-color immunofluorescence. Briefly, cells were preincubated at 4° C. for 60 min in 10% human AB serum and then with FITC-conjugated mouse IgGI isotype control. Analysis of fluorescence was performed on a flow cytometer.
Cell Cycle Analysis. The cell cycle was analyzed by flow cytometry after 60 h of incubation of HL-60 cells either with or without HHT (10^−8 M) as described. Briefly, the cells were fixed in cold methanol and incubated for 30 min at 4° C. in the dark with a solution of 50 μg/ml propidium iodide, 1 mg/ml Rnase, and 0.1% NP40. Analysis was performed immediately after staining using the CELLFIT program whereby the S-phase was calculated with Rfit model.
Clonogenic Assay in soft Agar. HL-60 cells were culture in a two-layer soft agar system for 10 days without adding any growth factors as described previously, and colonies were counted using an inverted microscope. […]

P388 leukemia cells = assay: Anti-leukemia activity against P388 lymphocytic leukemia in mice (survival); format: in vivo; conditions: Example 54; i.p. once a day; dose 1, 10, 20 mg/kg/day, group not stated
Method: Animals: Adult DBA/2J male mice, 6 to 8 weeks old. All animals weighed approximately 25 g when used in experiments. Mice were assigned randomly to treatment and control groups. Each member of which received identical dosed (i.p.) of PK or 0.9% NaCl solution for all injections. Volumes were 0.01 ml/g body weight.
Tumor: L1210 or P388 leukemia cells induced in mice by inoculation with L1210 or P388 leukemia cells (1.0×10^5).
The leukemia cells were passed i.p. weekly. L1210 or P388 cells were cultured at 37° C. in RPMI-1640 medium (GIBCO) without antibiotics and supplemented with 10% fetal calf serum.
After the tumor implantation (1×10^5 leukemia cells), PK was injected intraperitoneally once a day. The treatment was started between the end of 2nd and 6th day after inoculation. Dose of PK was 25 mg/kg/day for PK groups. Control mice were treated with same value of 0-9% NaCl. Anti-leukemia activity was expressed as T/C %. T is median survival days of treated group and C is that of control group. A T/C value was greater that 100% means the treated mice is surviving longer than the control mice. […] The statistical significance of data was determined by student's test. […]
After the tumor implantation (1×10^5 leukemia cells), PK-HHT-SSL was injected intraperitoneally once a day. […] Anti-leukemia activity was expressed as T/C %. […] The statistical significance of data was determined by student's test.

all cancer cells = assay: Inhibition of tumor cell proliferation, all cancer cells (statement); format: cell-based
Method: as §1
as §2, with “hours. Concentration of ELE or PK-ELE-NP is 50 ng/ml.” for “hours.”
as §3

Row | Molecule | Survival time T/L days (L-120 leukemia; Dose 1 mg/kg) | T/C (%) (L-120 leukemia; Dose 1 mg/kg) | Survival time T/L days (L-120 leukemia; Dose 5 mg/kg) | T/C (%) (L-120 leukemia; Dose 5 mg/kg) | inhibition at 1 µg/mL (breast carcinoma MCF-7) [%] | NBT (%) (gastric cancer cells) | NSE (%) (gastric cancer cells) | NBT (%) (HL-60 cells) | Survival time (P388 leukemia cells) [days] | Percent rates of inhibition (all cancer cells)
1 | COC(=O)C[C@](O)(CCCC(C)(C)O)C(=O)O[C@@H]1C(OC)=C[C@]23CCCN2CCc2cc4c(cc2[C@H]13)OCO4 [HHT, Homoharringtonine] | 5/9 | 55.6 | 27/9 | 300 | 78.5 ± 7.9 | 58* % | 60* % | 65* % | 19.8 ± 4.2 | –
2 | Eelemene | – | – | – | – | – | – | – | – | – | more than 70%
